Laboratory results as given in US8278072B1, “Method for synthesis of sialylated products using reversible sialylation” (Health Research, Inc., priority 2007, dated 2012).

Tests used:
Format in all cases: biochemical
ST3Gal-II [1] = target: T1, ST3Gal-II (Rattus norvegicus, UniProt Q11205); experiment: Reverse sialylation by ST3Gal-II in presence of citrate or 5′-nucleotides; conditions: 0.2 mM [3], 7 mM 5′-CMP, 3.0 mM [5], 4 hours
T1 construct: purchased Calbiochem
T1 sequence (Q11205 1-350): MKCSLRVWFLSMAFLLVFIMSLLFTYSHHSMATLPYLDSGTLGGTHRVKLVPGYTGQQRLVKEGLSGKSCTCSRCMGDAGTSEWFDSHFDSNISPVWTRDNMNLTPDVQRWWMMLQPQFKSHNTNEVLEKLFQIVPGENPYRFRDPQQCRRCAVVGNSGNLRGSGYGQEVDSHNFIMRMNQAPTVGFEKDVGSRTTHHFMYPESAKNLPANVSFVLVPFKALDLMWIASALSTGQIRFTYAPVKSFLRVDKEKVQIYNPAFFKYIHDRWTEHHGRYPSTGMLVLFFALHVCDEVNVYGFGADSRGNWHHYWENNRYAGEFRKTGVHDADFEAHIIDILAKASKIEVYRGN
Description: FIG. 5. Effect of 5′-nucleotides on direct sialyltransferase activity (panel a) and reverse sialylation (panel b). a. Varying concentrations of 5′-CDP or 5′-CMP were added to 100 mM acceptor (specified below), 0.15 mM CMP-[9-^3H]NeuAc and either ST3Gal-II (0.2 mU), ST3Gal-III (0.5 mU) or ST6Gal-I (0.2 mU) for 4 h at 37° C. Products were separated using Sep-Pak C18 method. ST3Gal-III activity was measured using acceptor 4-O-MeGalβ1,4GlcNAcβ-O-Bn in the presence of 5′-CDP (●) and 5′-CMP (◯). ST6Gal-I activity was measured using Gal β1,4GlcNAcβ-O-Bn in the presence of 5′-CDP (▴) and 5′-CMP (Δ). ST3Gal-II using D-Fucβ1,3GalNAcα-O-Bn in the presence of 5′-CDP (▪) and 5′-CMP (□). b) Reverse sialylation by ST3Gal-II was measured in reaction mixtures containing 0.2 mM [9-^3H] [3], 7 mM 5′-CMP, ST3Gal-II (2 mU), D-Fucβ1,3GalNAcα-OBn (3.0 mM) and varying doses of either 5′-CDP (▴), 5′-UMP (◯) or 2-deoxy 5′-CMP (●) for 4 hours at 37° C. Reaction product ([9-^3H]NeuAcα2,3DFucβ1,3 GalNAcα-O-Bn) was isolated using Sep-Pak C18 method. In some runs, where was absent, the amount of CMP-NeuAc produced was quantified using the Dowex-1 Formate method in the presence of varying doses of 5′-CDP (▪).
Besides pH other distinctions were also observed between forward and reverse sialylation. In this regard, citrate ions tended to inhibit forward sialylation but not reverse sialylation activity (Table V). For these studies, the effect of citrate on the forward sialylation activity of ST3Gal-I, ST3Gal-II, ST3Gal-III and ST6Gal-I was examined. Reverse sialylation activity of ST3Gal-II was also measured in terms of: i) the formation of CMP-NeuAc from 5′-CMP; and ii) the transfer of NeuAc from this newly synthesized CMP-NeuAc to another O-glycan. From the data (Table V), it is evident that citrate inhibits the direct sialylation activity of all the enzymes mentioned above. However, both the synthesis of CMP-[9-^3H]NeuAc from 5′-CMP as well as the synthesis of [9-^3H]NeuAcα2,3D-Fucβ1,3 GalNAcα-O-Bn using the newly formed CMP-[9-^3H]NeuAc through reverse sialylation of ST3Gal-II was not inhibited by citrate.
The effect of 5′-nucleotides on forward sialylation (FIG. 5a) and reverse sialylation (FIG. 5b) were examined. […] The overall formation of [9-^3H]NeuAcα2,3D-Fucβ1,3 GalNAcα-O-Bn by the two-step reverse sialylation process, however, was inhibited by 5′-CDP and this is consistent with the finding that 5′-CDP inhibits forward sialylation in the second step.

ST3Gal-II [2] = target: T1, ST3Gal-II; experiment: Reverse sialylation: transfer of [9-3H]NeuAc from sialylated donor to nucleotide phosphates (WGA-agarose); conditions: nucleotide phosphate 1 mM as acceptor, donor [1]
Description: FIG. 1. Nucleotide phosphates as acceptors of radioactivity from [9-^3H]NeuAcα2,3Galβ,13 (GlcNAcβ1,6)GalNAcα-O—Al (Al=Allyl) [[9-^3H] [1]] in the presence of ST3Gal-II (scheme-I). Reaction mixtures (RM) with the following composition were incubated at 37° C. for 21 hours in 100 mM NaCa Codylate buffer, pH6.0: i) RM containing 150 μM (0.4 μCi) [[9-^3H] [1]] (donor) along with 0.8 mU ST3Gal-II but no 5″-CMP; and, ii) RM containing [[9-^3H] [1]] and 1.0 mM 5′-CMP, along with ST3Gal-II. Products formed were fractionated on a WGA-agarose column. […] The feasibility of the reverse reaction is well established in literature. Schematic symbols: ♦:sialic acid, ●:Gal, □:GalNAc, ▪:GlcNAc.
All enzymatic sialylation reactions were typically carried out in 100 mM NaCa Codylate buffer pH6.0 in the presence of enzyme, synthetic acceptor (at 7.5 mM or as indicated in each experiment) and 0.2 μCi CMP-[9-^3H]NeuAc (NEN-Dupont, 29 mCi/μmol). The concentration of total CMP-NeuAc was adjusted in individual reactions by supplementing with additional cold CMP-NeuAc. Reaction volume was 20 μl. Products formed were separated using four different chromatography procedures (below). In all cases, the radioactive content of isolated products was determined by using 3a70 scintillation cocktail (Research Products International, Mount Prospect, Ill.), and a Beckman LS6500 scintillation counter.
(§1) a) Biogel P2 chromatography: A Biogel P2 column (Fine Mesh; 1.0×116.0 cm) was used with 0.1 M pyridine acetate (pH5.4) as the eluent at room temperature. […] Fractions of 1.0 ml were collected. The bound material was then eluted with 0.5M GlcNAc or 0.2M Gal in the same buffer. […] Calculation of equilibrium constant, Keq: Equilibrium constant was calculated for selected reversible bimolecular reactions that are denoted by:
Cloned and purified rat sialyltransferase α2,3(O)ST (ST3Gal-II) is used in many experiments presented in this manuscript. […] In order to determine if the sialylation reaction is reversible (FIG. 1), [9-^3H]NeuAcα2,3Galβ,13(GlcNAcβ1,6)GalNAcα-O—Al (Al=Allyl) [9-^3H[1]] was prepared using ST3Gal-II in the presence of CMP-[9-^3H]NeuAc and the trisaccharide acceptor Galβ1,3(GlcNAcβ1,6)GalNAcα-O—Al, and the radiolabeled product was isolated using Biogel P2 chromatography. […] Two different reaction mixtures were then prepared with: i) [9-^3H[1]] and ST3Gal-II but without 5″-CMP; and ii) [9-^3H[1]] and 5″-CMP along with ST3Gal-II.

ST3Gal-II [3] = target: T1, ST3Gal-II; experiment: Reverse sialylation equilibrium constant (Keq) and 5′-CMP dose dependence; conditions: acceptor 5′-CMP
Description: FIG. 2. Equilibrium constant. a. Reversible sialyltransferase activity at increasing concentration of 5′-CMP. 0.15 mM of donor [9-^3H]NeuAcα2,3Galβ1,3(4-FGlcNAcβ1,6)GalNAcα-O-Bn [9-^3H[2]] was incubated with varying concentrations of 5′-CMP and 0.15 mU ST3Gal-II under conditions described in FIG. 1 for 2 hours. The consumption of the [9-^3H]NeuAc benzyl glycoside donor was measured by subjecting the incubation mixture to Sep-Pak C18 fractionation, which binds the donor and not CMP-[9-^3H]NeuAc. The reaction proceeded to ½ the maximum extent at 80 μM 5′-CMP. b. Equilibrium constant Keq (=0.35) calculated for data in panel a. c. Varying concentrations of 5′-CMP was sialylated with ST3Gal-II (2.0 mU) using either 0.15 mM (panel c) or 1.5 mM (not shown) sialyl donor [9-^3H]NeuAcα2,3Galβ1,3GalNAcβ1,3Galα-O-Me [9-^3H[3]] for 4 hours. The product CMP-[9-^3H]NeuAc and the unused [9-^3H[3]] were separated and quantitated by Dowex-1-Formate method. d. Equilibrium constant, Keq=98.9. Diamonds denote data from 1.5 mM runs while data from 0.15 mM runs are depicted by squares.
as §1
[formula] Here, [9-^3H]D* denotes the radiolabeled donor and D′ is the donor after removal of sialic acid. Similarly, A and [9-^3H]A* denote the acceptor before and after incorporation of NeuAc. In each run, unreacted [9-^3H]D* and product [9-^3H] A* are measured using radioactivity measurements. The equilibrium constant (Keq=kreverse/kforward, dimensionless units) are then determined using the following equation, where terms in square brackets denote concentrations:
[formula] [D0] and [A0] are initial donor and acceptor concentrations. A plot of [D*]/([D0]−[D*]) versus [A*]/([A0]−[A*]) yields Keq from slope data. Keq<1 implies that the forward reaction is favored and the reaction proceeds to the right side to form [9-^3H]A* efficiently. Liquid Chromatography Coupled with Tandem Mass Spectrometry (LC/MS/MS)
Similar results were observed upon increasing concentrations of 5′-CMP when [9-^3H]NeuAcα2,3Galβ1,3(4-FGlcNAcβ1,6) GalNAcα-O-Bn [9-^3H[2]] was donor (FIG. 2a, b). The concentration of 5′-CMP that mediated half-maximal transfer of [9-^3H]NeuAc was 80 μM. The bimolecular equilibrium constant (Keq) for this reaction was 0.35 (dimensionless units, Table I). Indeed, the Keq varied depending on the donor and it was 98.9 when the donor was based on the globo glycolipid, [9-^3H]NeuAcα2,3Galβ1,3GalNAcβ1,3 Gala-O-Me [[9-^3H] [3]] (FIG. 2c, d). Upon comparing and [3], it is apparent that reverse sialylation proceeds more effectively in the case of [2]. To further confirm the above estimates of Keq for core-2 based structures, we also calculated this parameter for our previously published data where [9-^3H]CMP-NeuAc was donor and mucin core-2 tetrasaccharide Galβ1,4GlcNAcβ1,6(Galβ1,3)GalNAcα-O-Bn was acceptor. In this case, Keq measured with respect to the rate of mucin core-2 sialylation was 5.55 (data not shown), which translates to a reverse sialylation Keq of 0.18.

Row | Incorporation of [9-3H]NeuAc expressed as percent of the CPM incorporated into 5′-CMP (ST3Gal-II [2]) | Keq (dimensionless units), reverse sialylation equilibrium constant (ST3Gal-II [3]; translated from Keq 5.55 of mucin core-2 sialylation, previously published data) | Keq (dimensionless units), reverse sialylation equilibrium constant (ST3Gal-II [3]; sialylated donor) | Molecule | Effect on overall formation of [9-3H]NeuAcα2,3D-Fucβ1,3GalNAcα-O-Bn by two-step reverse sialylation (ST3Gal-II [1])
1 | 26.3% |  |  | Nc1ccn([C@H]2C[C@H](O)[C@@H](COP(=O)(O)O)O2)c(=O)n1 [2′ deoxy 5′-CMP] | did not alter the extent of product formation
2 | 55.9% |  |  | O=c1ccn([C@@H]2O[C@H](COP(=O)(O)O)[C@@H](O)[C@H]2O)c(=O)[nH]1 [5′-UMP] | did not alter the extent of product formation
3 |  | 0.18 |  | [9-^3H]NeuAcα2,3Gal(1,3(Gal(1,4GlcNAc(1,6)GalNAc(-O-Bn | 
4 |  |  | 98.9 | [9-^3H]NeuAcα2,3Galβ1,3GalNAcβ1,3Galα-O-Me [[3]] | 
